Test results as given in publication PMC5834492, “Antimycobacterial drug discovery using Mycobacteria-infected amoebae identifies anti-infectives and new molecular targets” (Scientific Reports, 2018).
Where two headings read alike, the source gives them in different places.

What was measured:
Mtb H37Rv in THP-1 = tested on: Mtb H37Rv in THP-1; set-up: method as in Sorrentino et al, 2015; details: ref Sorrentino et al, 2015, cited from earlier work; for Extracellular MIC90/ Inracellular MIC90: ratio
Mtb H37Rv = tested on: Mtb H37Rv; set-up: method as in Sorrentino et al, 2015; details: ref Sorrentino et al, 2015; cited from earlier work
[1] = tested on: M. marinum in BV2 microglial cells; format: cell-based, Mycobacterium marinum; details: for BV2 / M. marinum normalised growth, control=1.00, mean / hit in BV2/M. marinum assay True/False / anti-infective properties in microglial cell (BV2) infection assay: 10 µM
M. marinum GFP = format: cell-based, Mycobacterium marinum; details: 10 µM; antibiotic assay
M. marinum luxCDABE = format: cell-based, Mycobacterium marinum; details: 10 µM
[2] = tested on: M. marinum in A. castellanii; format: cell-based, Mycobacterium marinum; details: 10 µM
D. discoideum GFP-ABD = details: 10 µM
[3] = THP1 / Mtb H37Rv infection assay

Row | SMILES | Intracelullar MIC90 in THP-1 (Mtb H37Rv in THP-1; [3]) [µM] | Extracellular MIC90/ Inracellular MIC90 (Mtb H37Rv in THP-1) | Extracellular MIC90 (Mtb H37Rv) [µM] | IC50 [1] [µM] | BV2 / M. marinum normalised growth, control=1.00, mean [1] | M. marinum GFP normalised growth, control=1.00, mean (M. marinum GFP) | M. marinum luxCDABE normalised growth, control=1.00, mean (M. marinum luxCDABE) | A. castellanii / M. marinum normalised growth, control=1.00, mean [2] | D. discoideum GFP-ABD normalised growth, control=1.00, mean (D. discoideum GFP-ABD) | Intracelullar MIC90 in THP-1 (Mtb H37Rv in THP-1; Mtb H37Rv-infected THP1 cells) [µM] | hit in BV2/M. marinum assay True/False [1] | M. marinum luxCDABE normalised growth, control = 1.00, mean (M. marinum luxCDABE) | Hits A. castellanii/M. marinum assay True/False [2] | D. discoideum GFP-ABD normalised growth, control = 1.00, mean (D. discoideum GFP-ABD) | anti-infective properties in microglial cell (BV2) infection assay [1] | anti-infective properties in A. castellanii infection assay [2]
1 | Cn1ccnc1CNCCS(=O)(=O)c1cccc(Nc2ccc(-c3cccc(F)c3)cn2)c1 [GSK1826247A] | 0.61 | 7.7 | 4.7 | 7.73 | 0.98 | 0.98 | 0.00 | 1.14 | 0.90 |  |  |  |  |  |  | 
2 | Cc1cccc(Cn2ccc(NC(=O)c3ccc4c(c3)OCO4)n2)c1 [GSK798463A] | 5.55 | 0.67 | 3.7 | 5.01 | 0.80 | 0.0323 | 0.00 | 0.57 | 0.66 |  |  |  |  |  |  | 
3 | Br.Cc1ccccc1OCCCON1C(=N)N=C(N)NC1(C)C [BRL-8903SA] | 16.65 | 0.23 | 3.8 | 4.27 | 0.52 | 0.06 | 0.00 | 2.27 | 0.88 |  |  |  |  |  |  | 
4 | CCc1ccc(S(=O)(=O)Nc2cc(CN3CCN(CCC(C)C)CC3)ccc2C)cc1.O=C(O)C(F)(F)F.O=C(O)C(F)(F)F [SB-811137-V] | 5.55 | 0.85 | 4.7 | 5.94 | 0.85 | 0.94 | 0.18 | 1.15 | 0.88 |  |  |  |  |  |  | 
5 | O=C(NNC(=O)c1ccc([N+](=O)[O-])o1)c1ccc2ccccc2c1 [GSK347301A] | 16.65 | 0.5 | 8.3 | 6.58 | 0.97 | 1.03 | 0.19 | 0.90 | 0.49 |  |  |  |  |  |  | 
6 | O=C(NCc1ccc2c(c1)OCO2)c1c(C(F)(F)F)nc2ccccn12 [GSK1829671A] | 16.65 | 0.2 | 3.3 | 7.47 | 0.49 | 0.06 | 0.00 | 0.66 | 1.21 | 16.65 | TRUE | 0,00 | FALSE | 1,21 |  | 
7 | Cc1ccc2nc(C(F)(F)F)c(C(=O)NCc3ccc(C)o3)n2c1 [GSK1829728A] | 1.85 | 1.84 | 3.4 | 4.03 | 0.43 | 0.10 | 0.00 | 0.78 | 1.01 | 1.85 | TRUE | 0,00 | FALSE | 1,01 |  | 
8 | Clc1ccc(CCNc2cc(-c3ccccc3)nc3ncnn23)cc1 [GSK1955236A] | 1.85 | 0.81 | 1.5 | 5.69 | 0.80 | 0.66 | 0.00 | 1.32 | 0.93 |  |  |  |  |  |  | 
9 | Cc1n[nH]c(C)c1S(=O)(=O)NCc1nc(NCCCc2ccccc2)c2ccccc2n1 [GSK2059310A] | 5.55 | 0.32 | 1.8 | 4.65 | 0.57 | 0.46 | 0.00 | 1.06 | 0.84 |  |  |  |  |  |  | 
10 | O=C(NC(Cc1ccccc1)C(=O)Nc1ccccc1N1CCOCC1)c1cccs1 (centres unmarked) [GSK1055950A] | 1.85 | 4.11 | 7.6 | 2.84 | 0.33 | -0.01 | 0.00 | 0.24 | 1.07 | 1.85 | TRUE | 0,00 | TRUE | 1,07 | strong anti-infective properties | strong anti-infective properties
11 | COc1ccccc1OCCCCn1c(C2CC2)nc2ccccc21 [GSK994258A] | 5.55 | 0.61 | 3.4 | 8.73 | 0.59 | 0.10 | 0.00 | 1.03 | 0.31 |  |  |  |  |  |  | 
12 | CCN(Cc1ccc2c(c1)OCO2)C(=O)CSc1nc(NC)c2ccccc2n1 [GSK1859936A] | 16.65 | 0.17 | 2.8 | 4.14 | 0.63 | 0.54 | 0.07 | 1.03 | 1.00 |  |  |  |  |  |  | 
13 | CNc1nc(SC)nc2ccccc12 [GSK353069A] | 0.07 | 2.86 | 0.2 | 1.31 | 0.42 | 0.0149 | 0.00 | 0.47 | 0.99 | 0.07 | TRUE | 0,00 | TRUE |  | strong anti-infective properties | strong anti-infective properties
